Test results taken from patent EP0155872A1, “Process for reducing the lignin content of plants, and compositions for putting it into use” (priority 1984, dated 1985).

Legend:
CAD = biological target: T1, CAD (Populus deltoides, UniProt P31657); assay: Specificity of the inhibitors among the enzymes tested; assay type: biochemical
T1 sequence (P31657 1-357): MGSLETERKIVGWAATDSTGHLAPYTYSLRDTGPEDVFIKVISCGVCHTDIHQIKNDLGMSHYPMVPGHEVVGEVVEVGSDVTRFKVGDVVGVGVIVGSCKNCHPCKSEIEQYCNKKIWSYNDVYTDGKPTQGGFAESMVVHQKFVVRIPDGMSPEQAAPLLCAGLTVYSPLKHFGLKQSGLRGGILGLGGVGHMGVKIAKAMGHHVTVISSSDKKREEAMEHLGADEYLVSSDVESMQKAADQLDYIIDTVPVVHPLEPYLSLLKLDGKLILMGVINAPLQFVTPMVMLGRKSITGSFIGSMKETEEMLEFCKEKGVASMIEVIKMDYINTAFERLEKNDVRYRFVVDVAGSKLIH

[1] = test system: fractions de xylème de peuplier; assay: Incorporation of cinnamic acid (14C3) into lignins by isolated poplar xylem fractions; assay type: cell-based; conditions: for Taux de radio-activité incorporé dans les lignines (%) / Radioactivité absorbée (µCi/essai) / Radioactivité incorporée dans les lignines (µCi/essai): 30 h; for Radioactivité absorbée (µCi/essai) / Radioactivité incorporée dans les lignines (µCi/essai): mean of 3; for inhibition at 200 µM / inhibition at 1000 µM: relative to % incorporated in the control = 100
Description: Les tissus de xylème isolés (300 mg par essai) sont mis en suspension dans des fioles d'erlenmeyer (25ml), bouchées par du coton cardé contenant : • - du tampon Tris/HCl, O,lM, pH 7,5 (qsp Sml) maintenant le pH entre 7 et 8, • - du Dextran T40 (25 g/1) utilisé comme agent osmotique, ne constituant pas une source de carbone pour la cellule végétale, • - du mercaptoéthanol (O,lmM), antioxydant qui empêche un brunissement très rapide des tissus, • - de l'éther monométhylique de l'éthylène glycol (EMMEG) (50 µl) ou des inhibiteurs solubilisés dans ce polyol (5^0 µ1), • - de l'acide cinnamique (^14C3) (2,5 µCi).
Les fioles sont palcées à 26°C, sous agitation orbitale (agitateur New Brunswick modèle G 10,100 rpm) et sous un éclairement de 4000 lux pendant 30 h. La radioactivité incorporée par les lignines est alors estimée à partir de "poudre alcool-benzène" obtenu par extraction à l'alcool-benzène des fractions tissulaires lyophilisées et réduites en poudre.
Afin de mesurer l'absorption de l'acide cinnamique par les fractions tissulaires et de corriger d'éventuelles différences d'absorption selon les essais, une fraction aliquote du milieu d'incubation (50 µl) est prélevée à différents temps et la radioactivité estimée au compteur à scintillation liquide.
La mesure de la radioactivité libérée sous forme de ^14CO2 après combustion totale des "poudres alcool-benzène" révèle qu'en présence du OHPAS ou du NH2PAS, on observe une baisse de la radioactivité retrouvée dans les lignines. Ainsi, ces inhibiteurs entraînent à la concentration de lmM, une inhibition de 40 à 70% de la synthèse des lignines radioactives. Ces résultats sont rapportés dans le tableau 3 ci-après : […]

tiges de peuplier = assay: Incorporation of cinnamic acid (14C3) into lignins in cut poplar stems; assay type: in vivo; conditions: 96 heures de métabolisation, read-out: inhibition de l'incorporation de l'acide cinnamique dans le polymère
Text: Afin de vérifier chez des tiges de peuplier l'action de l'OHPAS et du NH2PAS, on réalise des incorporations d'acide cinnamique (5 yCi) à des rameaux comportant 12 entrenoeuds selon la technique de la tige sectionnée décrite par BOUDET,dans C.R. Acad. Sci.Paris, p. 1966-1968, 269, 1969. La radioactivité des lignines est mesurée après 96 heures de métabolisation.
Lorsque la métabolisation est effectuée en présence du OHPAS et du NH2PAS, on observe une diminution de la radioactivité incorporée dans les lignines. Ainsi, l'OHPAS, à la concentration de 160 µM inhibe de 46% l'incorporation de l'acide cinnamique dans le polymère. Bien que les concentrations en inhibiteurs soient plus faibles, l'effet des inhibiteurs apparaîtsemanifester de façon plus nette-pour une métabolisation de plus longue durée.

CCR = assay: Inhibition of cinnamoyl:CoA reductase (CCR); assay type: biochemical

Row | SMILES | spécificité en regard des enzymes testées (CAD) | Taux de radio-activité incorporé dans les lignines (%) ([1]; 0,2mM) | Radioactivité absorbée (µCi/essai) ([1]; 0,2mM) | Radioactivité incorporée dans les lignines (µCi/essai) ([1]; 0,2mM) | inhibition at 200 µM ([1]; 0,2mM) [%] | Taux de radio-activité incorporé dans les lignines (%) ([1]; 1mM) | Radioactivité absorbée (µCi/essai) ([1]; 1mM) | Radioactivité incorporée dans les lignines (µCi/essai) ([1]; 1mM) | inhibition at 1000 µM ([1]; 1mM) [%] | inhibition at 160 µM (tiges de peuplier) [%] | inhibition de la CCR (CCR)
1 | CC(C)(C)OC(=O)C[S+]([O-])Nc1ccccc1O (stereo not shown) [composé 2, N-(o -hydroxy phényl)sulfinamoyl acétate de tertiobutyle] | spécificité stricte vis-à-vis de la CAD | 24 | 0,75 µCi/essai | 0,18 µCi/essai | 17 | 10 | 0,75 µCi/essai | 0,075 µCi/essai | 70 | 46 | –
2 | CC(C)(C)OC(=O)C[S+]([O-])Nc1ccccc1N (stereo not shown) [composé 5, N-(o-Amino phényl)Sulfinamoyl Acétate de tertiobutyle] | – | 32 | 0,80 µCi/essai | 0,26 µCi/essai | 4 | 20 | 0,80 µCi/essai | 0,16 µCi/essai | 40 | – | inhibe également la CCR
